Results as given in ChEMBL document CHEMBL1201862, “PubChem BioAssay data set” (2004).
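48-hour exposure; five concentrations; linearly interpolated endpoints. GI50 is the concentration that inhibits growth by half.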 Active and inactive are the calls of the source. Rule as the data show it: active = GI50 up to about 1.1 µM and inactive = higher.

Columns and labels:
Assay in all cases: growth of human tumour cells (NCI), 48 h
SNB-19 = system: SNB-19
SK-MEL-5 = system: SK-MEL-5
TK-10 = system: TK-10
786-0 = system: 786-0
MOLT-4 = system: MOLT-4
DMS-273 = system: DMS-273
M19-MEL = system: M19-MEL
K562 = system: K562
NCI-H23 = system: NCI-H23
IGROV-1 = system: IGROV-1
HOP-92 = system: HOP-92
SF-268 = system: SF-268
SF-295 = system: SF-295
M14 = system: M14
A549 = system: A549
U-251 = system: U-251
CAKI-1 = system: CAKI-1
KM12 = system: KM12
EKVX = system: EKVX
UACC-62 = system: UACC-62
SK-MEL-28 = system: SK-MEL-28
OVCAR-5 = system: OVCAR-5
SW-620 = system: SW-620
RPMI-8226 = system: RPMI-8226
RXF 393 = system: RXF 393
OVCAR-8 = system: OVCAR-8
CCRF-CEM = system: CCRF-CEM
NCI-H226 = system: NCI-H226
DMS-114 = system: DMS-114
HCT-116 = system: HCT-116
COLO 205 = system: COLO 205
HL-60 = system: HL-60
HCC 2998 = system: HCC 2998
HT-29 = system: HT-29
HOP-62 = system: HOP-62
SF-539 = system: SF-539
UACC-257 = system: UACC-257
SK-OV-3 = system: SK-OV-3
SNB-78 = system: SNB-78
RXF 631 = system: RXF 631
DLD-1 = system: DLD-1
ACHN = system: ACHN
OVCAR-3 = system: OVCAR-3
HCT-15 = system: HCT-15
Malme-3M = system: Malme-3M
LOX IMVI = system: LOX IMVI
SK-MEL-2 = system: SK-MEL-2
KM-20L2 = system: KM-20L2
NCI-H460 = system: NCI-H460
SNB-75 = system: SNB-75
UO-31 = system: UO-31
A498 = system: A498
LXFL 529 = system: LXFL 529
SR = system: SR
SN12C = system: SN12C
OVCAR-4 = system: OVCAR-4
NCI-H522 = system: NCI-H522
Hs-578T = system: Hs-578T
HOP-18 = system: HOP-18
XF498 = system: XF498
BT-549 = system: BT-549
MDA-N = system: MDA-N
T47D = system: T47D
MDA-MB-231 = system: MDA-MB-231
MCF7 = system: MCF7
NCI/ADR-RES = system: NCI/ADR-RES
DU-145 = system: DU-145
PC-3 = system: PC-3
MDA-MB-435 = system: MDA-MB-435

Measured: GI50

O=C(N/N=C(/c1nc2ccc(Cl)cc2[nH]c1=O)C(O)c1ccc(Cl)cc1Cl)c1ccncc1 (stereo unspecified)
inactive: SNB-19 > 100 µM | SK-MEL-5 > 100 µM | TK-10 > 100 µM | 786-0 > 100 µM | MOLT-4 > 100 µM | DMS-273 > 100 µM | M19-MEL > 100 µM | K562 > 100 µM | NCI-H23 > 100 µM | IGROV-1 > 100 µM | HOP-92 > 100 µM | SF-268 > 100 µM | SF-295 > 100 µM | M14 > 100 µM | A549 > 100 µM | U-251 > 100 µM | CAKI-1 > 100 µM | KM12 > 100 µM | EKVX > 100 µM | UACC-62 > 100 µM | SK-MEL-28 > 100 µM | OVCAR-5 > 100 µM | SW-620 > 100 µM | RPMI-8226 > 100 µM | RXF 393 > 100 µM | OVCAR-8 > 100 µM | CCRF-CEM > 100 µM | NCI-H226 > 100 µM | DMS-114 > 100 µM | HCT-116 > 100 µM | COLO 205 > 100 µM | HL-60 > 100 µM | HCC 2998 > 100 µM | HT-29 > 100 µM | HOP-62 > 100 µM | SF-539 > 100 µM | UACC-257 > 100 µM | SK-OV-3 > 100 µM | SNB-78 > 100 µM | RXF 631 > 100 µM | DLD-1 > 100 µM | ACHN > 100 µM | OVCAR-3 > 100 µM | Malme-3M > 100 µM | LOX IMVI > 100 µM | SK-MEL-2 > 100 µM | KM-20L2 > 100 µM | NCI-H460 > 100 µM | SNB-75 > 100 µM | UO-31 > 100 µM | A498 > 100 µM | LXFL 529 > 100 µM
> 100 µM: HCT-15

O=C1[C@@H]2C(c3ccc(Br)cc3)=NO[C@@H]2C(=O)N1c1ccc(Cc2ccc(N3C(=O)[C@H]4C(c5ccc(Br)cc5)=NO[C@H]4C3=O)cc2)cc1
> 40 µM: HCT-15
active: A498 0.0139 µM
inactive: TK-10 16.9 µM | DMS-273 > 40 µM | HOP-92 > 40 µM | SR 19.1 µM | HCT-116 > 40 µM | RXF 631 > 40 µM | ACHN > 40 µM | SN12C > 40 µM

CC(=O)C1=C(C)Cn2c(=O)c3ccccc3c(=O)n2C1
> 100 µM: HCT-15
inactive: SNB-19 > 100 µM | SK-MEL-5 > 100 µM | TK-10 > 100 µM | 786-0 > 100 µM | MOLT-4 > 100 µM | DMS-273 > 100 µM | M19-MEL > 100 µM | K562 > 100 µM | NCI-H23 > 100 µM | IGROV-1 > 100 µM | HOP-92 > 100 µM | SF-268 > 100 µM | SF-295 > 100 µM | SR > 100 µM | M14 > 100 µM | A549 > 100 µM | U-251 > 100 µM | CAKI-1 > 100 µM | KM12 > 100 µM | EKVX > 100 µM | OVCAR-4 > 100 µM | SK-MEL-28 > 100 µM | OVCAR-5 > 100 µM | SW-620 > 100 µM | RPMI-8226 > 100 µM | RXF 393 > 100 µM | OVCAR-8 > 100 µM | CCRF-CEM > 100 µM | NCI-H226 > 100 µM | DMS-114 > 100 µM | HCT-116 > 100 µM | COLO 205 > 100 µM | HL-60 > 100 µM | HCC 2998 > 100 µM | HT-29 > 100 µM | HOP-62 > 100 µM | SF-539 > 100 µM | UACC-257 > 100 µM | SK-OV-3 > 100 µM | RXF 631 > 100 µM | DLD-1 > 100 µM | ACHN > 100 µM | OVCAR-3 > 100 µM | Malme-3M > 100 µM | LOX IMVI > 100 µM | NCI-H522 > 100 µM | SK-MEL-2 > 100 µM | SN12C > 100 µM | KM-20L2 > 100 µM | NCI-H460 > 100 µM | SNB-75 > 100 µM | UO-31 > 100 µM | A498 82 µM | LXFL 529 > 100 µM

O=CN/C=C/c1cccc(O)c1
72.1 µM: HCT-15
inactive: SNB-19 70.1 µM | SK-MEL-5 > 63.1 µM | Hs-578T > 55.2 µM | TK-10 88.3 µM | 786-0 54 µM | MOLT-4 59.8 µM | DMS-273 > 100 µM | M19-MEL > 100 µM | K562 > 75.7 µM | HOP-18 > 100 µM | XF498 > 100 µM | BT-549 8.26 µM | NCI-H23 52.4 µM | IGROV-1 55 µM | HOP-92 55.2 µM | SF-268 > 57.5 µM | SF-295 48.8 µM | SR > 43.7 µM | MDA-N 46 µM | M14 61.9 µM | A549 54.5 µM | U-251 56.9 µM | CAKI-1 > 61.5 µM | KM12 62.4 µM | EKVX 69.2 µM | UACC-62 46.1 µM | OVCAR-4 61.4 µM | T47D 63.4 µM | SK-MEL-28 > 84.1 µM | OVCAR-5 74.6 µM | SW-620 69.7 µM | RPMI-8226 > 71.9 µM | RXF 393 60 µM | MDA-MB-231 49.8 µM | OVCAR-8 54.1 µM | CCRF-CEM 61.1 µM | NCI-H226 56.5 µM | DMS-114 > 100 µM | HCT-116 52.7 µM | COLO 205 > 77.3 µM | HL-60 38.5 µM | HCC 2998 > 74.6 µM | HT-29 50.4 µM | HOP-62 39.3 µM | SF-539 57.3 µM | UACC-257 63.7 µM | SK-OV-3 > 72.1 µM | SNB-78 > 100 µM | DLD-1 > 100 µM | ACHN 50 µM | OVCAR-3 > 100 µM | MCF7 > 34 µM | Malme-3M > 82.8 µM | LOX IMVI 48.4 µM | NCI-H522 48.3 µM | SK-MEL-2 58.7 µM | SN12C 56.2 µM | KM-20L2 > 100 µM | NCI/ADR-RES 52.2 µM | DU-145 57.5 µM | PC-3 56.6 µM | NCI-H460 43.1 µM | SNB-75 > 69.3 µM | UO-31 54.2 µM | MDA-MB-435 38.2 µM | A498 > 64.3 µM | LXFL 529 > 100 µM
